Consider one compound from US20090211893A1, “Photo-Activatable Amino Acids” (priority 2005, published 2009).

Test [1] relates to COS7 cells. The test is described as follows: Incorporation of [1-14C]photo-Met and [3H]Phe into newly synthesized protein. The class given is cell-based, monkey. The method, then: Cells were washed 6 times with PBS and lysed in 0.5% Triton X-100, 0.2% sodium deoxycholate. Aggregated DNA was removed, protein was precipitated^43, the pellet was redissolved in 0.3 ml 0.5% SDS and subjected to a second round of precipitation. […] The dried pellet was redissolved and processed for scintillation counting (data of Table 1 and FIG. 4b) or processed as follows for amino acid analysis (FIG. 2b): the pellet was dissolved in 600 µl 50 mM NH4HCO3, 0.5% SDS, 3 mM CaCl2 containing 0.25 mg pronase (Roche) followed by incubation at 37° C. for 20 h. The sample was lyophilized, dissolved in 600 μl of 7 N HCl containing 4 mg of glutamic acid and 6 mg of photo-Met and heated to 70° C. for 24 h. A Dowex 50WX8 column (1.6×24 cm) was prepared^18 and equilibrated with 0.1 M sodium citrate pH 3.8. The sample was concentrated to 50 μl in a speed-vak, diluted to 1 ml with 0.1 M sodium citrate pH 3.8, and loaded onto the column. The column was eluted at 24° C. at a flow rate of 20 ml/h with 70 ml 0.1 M sodium citrate pH 3.8, 26 ml 0.1 M sodium citrate pH 4.3 and 100 ml of 0.1 M sodium citrate pH 4.5. Fractions of 3 ml were collected and assayed for absorbance at 350 nm, radioactivity by scintillation counting, and amino groups by the fluorescamine method^44.
To decrease competition for activation by tRNA synthetases, media devoid of the structurally related amino acids Leu and Met (LM-2) or, for some experiments, devoid of Leu, Met, Ile and Val (LM-4) were used. Proteins incorporated radioactivity as shown by autoradiography after separation by SDS-PAGE (FIG. 2a, lane 3). […] 88% of the radioactivity in the labeled proteins was intact [1-^14C]photo-Met (FIG. 2b, photo-Met). A small peak eluting slightly earlier than glutamic acid (FIG. 2 B, Glu) contained 7% of the radioactivity. This peak was also observed if free [1-^14C]photo-Met was heated with HCl under the conditions of the hydrolysis (data not shown) and therefore represents a product of thermal decomposition of the amino acid. Under the conditions employed, radioactivity originating from degradation/re-integration would be expected to appear as aspartate and glutamate (oxidative release of [^14C]CO2, metabolism via pyruvate carboxylase, citric acid cycle and transamination to Gln and Asn that will be hydrolyzed to Glu and Asp by hot HCl). However, no radioactivity was incorporated via this pathway. We conclude that at least 95% of incorporated radioactivity represents intact [1-^14C]photo-Met. To obtain quantitative data on the frequency of incorporation of photo-Met into newly synthesized protein, we performed co-labeling with [1-^14C]photo-Met and [^3H]Phe. […] Two in three hundred amino acids in newly synthesized protein will be photo-Met.

Test [2] deals with COS7 cells. The test is described as follows: Competition of [1-14C]photo-Met incorporation by natural amino acids. The test is classed as cell-based, monkey. Particulars: 1.7 mM [1-14C]photo-Met, 3 mM competing amino acid. As for the experimental part: FIG. 4: Specificity of incorporation and cross-linking by photo-Met and photo-Leu. COS7 cells were transfected with HA-tagged human PGRMC1 and were grown in LM-4 in the absence or presence of photo-Leu (A) or photo-Met (B) with addition of 3 mM of the indicated competing amino acid. cross-linked products formed after UV-irradiation were detected by SDS-PAGE followed by western blotting against the HA-epitope. (C) COS7 cells were grown in the presence of 1.7 mM [1-^14C]photo-Met, a constant trace amount of [^3H]Phe and 3 mM of competing unlabeled amino acids as indicated in the legend. Protein was precipitated and protein-bound radioactivity was determined by scintillation counting. […] The control value obtained in the absence of competing amino acid (con) is set to 100. Data are average±SD of triplicate determinations.
COS7 cells were grown for 20 h in LM-2 containing radiolabeled amino acids ([1-^14C]photo-Met and [^3H]Phe). Cells were washed 6 times with PBS and lysed in 0.5% Triton X-100, 0.2% sodium deoxycholate. Aggregated DNA was removed, protein was precipitated^43, the pellet was redissolved in 0.3 ml 0.5% SDS and subjected to a second round of precipitation. […] Fractions of 3 ml were collected and assayed for absorbance at 350 nm, radioactivity by scintillation counting, and amino groups by the fluorescamine method^44. […]

For the compound `CC1(CCC(N)[14C](=O)O)N=N1` (racemic) [[1-^14C]photo-Met, DL-[1-^14C]-2-amino-5,5′-azi-hexanoic acid], the “Relative frequency (of total amino acids in newly synthesized protein)” value in the test on COS7 cells [1] (COS7 cells grown 22 h in LM-2) worked out at 0.7%. The compound further showed an Incorporated amino acid in the test with COS7 cells [1] (COS7 cells grown 22 h in LM-2, average ± SD of triplicate) of 0.50 ± 0.05 nmol/dish. Further, the Protein-bound activity in the test on COS7 cells [1] (COS7 cells grown 22 h in LM-2 with [3H]Phe and [1-14C]photo-Met, average ± SD of triplicate) was 2.34 ± 0.23 nCi/dish. For the same compound, the “frequency of incorporation relative to that of phenylalanine” value with COS7 cells [1] (co-labeling with [1-14C]photo-Met and [3H]Phe) turned out to be 14%. In the test on COS7 cells [2], the “competition of incorporation by Met and Leu” value is reported as “strongly competed”; the “effect of Val and Ile on incorporation” value was “slightly stimulated incorporation”.
